Experimental data reported in US20070135382A1, “Use of peroxisome proliferator-activated receptor gamma (ppary) and/or retinoic acid receptor (rxr) agonists to inhibit platelet functions” (priority 2003, published 2007).

Assays:
PPARγ [1] = biological target: T1, PPARγ (Homo sapiens, UniProt P37231); assay: Electrophoretic mobility shift assay for PPARγ DNA binding in Meg-01 cells; type: cell-based; conditions: 15d-PGJ2 5 μM or ciglitazone 10 μM, 4 hours, nuclear extract, vs DMSO
T1 construct: endogenous in cells; host or cells: purified human blood platelets
T1 sequence (P37231 1-505): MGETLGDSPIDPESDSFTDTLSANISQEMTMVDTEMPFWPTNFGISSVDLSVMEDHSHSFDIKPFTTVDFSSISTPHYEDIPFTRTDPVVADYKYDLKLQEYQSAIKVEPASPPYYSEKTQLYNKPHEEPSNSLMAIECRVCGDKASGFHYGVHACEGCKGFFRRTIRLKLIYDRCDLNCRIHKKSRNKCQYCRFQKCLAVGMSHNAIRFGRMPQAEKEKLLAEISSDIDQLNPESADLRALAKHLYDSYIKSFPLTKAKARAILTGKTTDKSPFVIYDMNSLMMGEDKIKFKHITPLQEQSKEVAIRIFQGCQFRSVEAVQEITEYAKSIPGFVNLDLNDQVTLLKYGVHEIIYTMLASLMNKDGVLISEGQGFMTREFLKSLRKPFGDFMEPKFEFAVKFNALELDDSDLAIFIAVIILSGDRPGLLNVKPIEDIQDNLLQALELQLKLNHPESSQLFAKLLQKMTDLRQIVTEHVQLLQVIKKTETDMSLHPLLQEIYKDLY
T1 sequence (P19793 1-462 partner): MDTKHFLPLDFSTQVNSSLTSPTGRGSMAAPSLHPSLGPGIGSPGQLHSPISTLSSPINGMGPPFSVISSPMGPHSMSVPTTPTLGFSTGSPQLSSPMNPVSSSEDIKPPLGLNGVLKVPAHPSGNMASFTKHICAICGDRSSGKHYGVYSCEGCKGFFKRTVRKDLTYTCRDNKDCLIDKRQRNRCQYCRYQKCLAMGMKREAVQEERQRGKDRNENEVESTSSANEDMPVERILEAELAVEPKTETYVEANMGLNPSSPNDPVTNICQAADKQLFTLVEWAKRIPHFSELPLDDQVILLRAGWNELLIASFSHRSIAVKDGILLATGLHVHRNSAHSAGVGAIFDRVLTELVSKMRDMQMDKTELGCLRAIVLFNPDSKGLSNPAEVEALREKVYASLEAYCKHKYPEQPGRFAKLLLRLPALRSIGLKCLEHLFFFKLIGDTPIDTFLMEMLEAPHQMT
Method: Cells were treated with 5 μM 15d-PGJ2, 10 μM ciglitazone, or DMSO (vehicle control) for 4 hours. The cells were washed in cold PBS and then incubated on ice in hypotonic buffer (10 mM HEPES-KOH (pH 7.9), 1.5 mM MgCl2, 10 mM KCl, 0.5 mM DTT, 0.5% Nonidet P-40 and 0.2 mM PMSF) for 10 minutes. The lysates were vortexed for 10 seconds and centrifuged for 15 seconds. The pellet was isolated carefully and re-suspended in 80 μl of hypertonic buffer (20 mM HEPES-KOH (pH 7.9), 1.5 mM MgCl2, 25% glycerol, 420 mM NaCl, 0.2 mM EDTA, 0.5 mM DTT, and 0.2 mM PMSF). After incubation on ice for 20 minutes, lysates were centrifuged for 20 seconds and the supernatant containing the nuclear protein was transferred to new tubes. Protein quantification was performed using a BCA assay kit. Platelet protein isolation was done as described for the PPARγ activity assay. For the gel shift assay of Meg-01 and platelets, the consensus sequence for PPARγ (5′-[…]-3′) (SEQ ID NO: 1) was labeled with [γ-32P]ATP using T4 Polynucleotide Kinase (Life technologies). Micro Bio-Spin P-30 Tris Chromatography Columns were used to remove the unbound nucleotides (Bio-Rad). […]

PPARγ [2] = biological target: T1, PPARγ; assay: TransAM PPARγ DNA binding activity assay in platelets; type: cell-based; conditions: platelets exposed to 20 μM agonist, 2 h at 37° C.
Method: Platelets were lysed with hypotonic buffer (10 mM HEPES-KOH (pH 7.9), 1.5 mM MgCl2, 10 mM KCl, 0.5 mM DTT, 0.5% Nonidet P-40 and 0.2 mM PMSF) and 10 μg of cell extract was incubated in each well of TransAM® PPARγ assay kit (Active Motif, Carlsbad, Calif.) and PPARγ DNA binding was determined as per manufacturers' protocol.
The ability of platelet derived PPARγ to bind its DNA consensus sequence was also measured using the TransAM™ PPARγ assay kit (Active Motif Inc.). In this method the consensus DNA sequence for PPARγ binding (or as a control mutated oligonucleotides) is plate-bound. A cell lysate is then added to the well, washed and next incubated with an enzyme-conjugated anti-PPARγ antibody that recognizes only DNA-bound PPARγ. Following substrate addition, a colored product is formed.

human platelets [3] = assay: Thrombin-induced platelet release of CD40L (ELISA); type: cell-based; conditions: 20 μM for 15 min, then 0.8 U/ml thrombin, 5-60 min
Method: (§1) Platelets were then activated with 0.8 U/ml thrombin or buffer and samples were taken at the 5, 10, 15, 30 and 60 minutes time points to measure human soluble CD40L and PGE2. CD40L assays were performed with a commercially available ELISA specific for CD40L (Bender Biomedical Systems, San Bruno, Calif.). […] The stable end product of platelet TXA2 synthesis, namely TXB2, was measured using a highly specific enzyme immunoassay from Cayman Chemical Company as per the manufacturer's directions.
(§2) Platelets were then incubated with buffer or with thrombin, a powerful platelet activator.

human platelets [4] = assay: Thrombin-induced platelet release of TXB2 (enzyme immunoassay); type: cell-based; conditions: 20 μM for 15 min, then 0.8 U/ml thrombin, 5-60 min
Method: as §1, §2

human platelets [5] = assay: Thrombin-induced platelet release of PGE2 (enzyme immunoassay); type: cell-based; conditions: 20 μM for 15 min, then 0.8 U/ml thrombin
Method: as §1

platelets [6] = assay: Platelet aggregation in platelet rich plasma (turbidometric method of Born); type: cell-based, human
Method: Platelet aggregation was performed using the turbidometric method of Born (“Quantitative Investigations into the Aggregation of Blood Platelets,” J. Physiol. Lond. 162:67 (1962), which is hereby incorporated by reference in its entirety) with simultaneous measurement of ATP release using a Chrono-log Lumi-aggregometer with AGGRO/LINK for Windows Software version 5.1.6 (Chrono-log Corp., Havertown, Pa.). Blood was collected by clean venipuncture from normal donors who abstained from drugs known to affect platelet aggregation into 0.105M/sodium citrate. Platelet rich plasma (PRP) was prepared by centrifugation at 150×g for 10 min at 20° C., and the platelet count adjusted to 250,000/μl by mixing PRP and platelet poor plasma from the same donor. All experiments were performed within 3 hours of blood collection. Aggregation was performed with ADP, and the slope of aggregation and amplitude were computed using accompanying software. The effects of the PPARγ agonist 15d-PGJ2 were tested by addition of varying concentrations to PRP for 15 min before aggregation. The 15d-PGJ2 was dissolved in DMSO, with a final concentration of DMSO in the samples of approximately 0.1%.

Human blood = assay: PFA-100 clotting (closure) time in human blood; type: cell-based; conditions: vs vehicle only, p=0.012
Method: Platelet activation was induced using epinephrine or ADP, and clotting time was assessed using a PFA-100. The PFA-100 allows for an approximation of bleeding times in patients. Longer closure times equal a lower ability to form a clot. […] Human blood was exposed to 15d-PGJ2 or vehicle only followed by testing in the PFA-100 activated with ADP.

platelets [7] = assay: ATP release from platelets during aggregation (Lumi-aggregometry); conditions: 20 μM
Method: ATP release from platelets during aggregation was characterized by Lumi-Aggregometry after stimulation with thrombin (1 U/ml) or ADP (5 μM). […] The rate of release with normal platelets was defined as 100%. […] The results represent mean±SEM of three experiments.
Platelet aggregation was performed using the turbidometric method of Born (“Quantitative Investigations into the Aggregation of Blood Platelets,” J. Physiol. Lond. 162:67 (1962), which is hereby incorporated by reference in its entirety) with simultaneous measurement of ATP release using a Chrono-log Lumi-aggregometer with AGGRO/LINK for Windows Software version 5.1.6 (Chrono-log Corp., Havertown, Pa.). Blood was collected by clean venipuncture from normal donors who abstained from drugs known to affect platelet aggregation into 0.105M/sodium citrate. Platelet rich plasma (PRP) was prepared by centrifugation at 150×g for 10 min at 20° C., and the platelet count adjusted to 250,000/μl by mixing PRP and platelet poor plasma from the same donor. All experiments were performed within 3 hours of blood collection. Aggregation was performed with ADP, and the slope of aggregation and amplitude were computed using accompanying software. The effects of the PPARγ agonist 15d-PGJ2 were tested by addition of varying concentrations to PRP for 15 min before aggregation. The 15d-PGJ2 was dissolved in DMSO, with a final concentration of DMSO in the samples of approximately 0.1%. […] Additional clotting studies were performed using a PFA-100 according to the manufacturer's instructions. Basically, clotting time (induced by clotting activator such as epinephrine or ADP) was measured in the presence or absence of a PPARγ agonist, and differences noted.
To determine if a PPARγ agonist would inhibit platelet aggregation, the natural PPARγ agonist 15d-PGJ2 was added to PRP and aggregation and ATP release stimulated with ADP.

CCCCC/C=C/C=C1/C(=O)C=C[C@@H]1C/C=C\CCCC(=O)O [15d-PGJ2, 15D-prostaglandin J2]
level of active (DNA binding) PPARγ in Meg-01 cells by EMSA (PPARγ [1]): increased
binding to the PPARγ DNA response element (TransAM) (PPARγ [2]): significantly enhances binding
release of CD40L (human platelets [3]): largely prevented
release of TXB2 (human platelets [4]): largely prevented
thrombin-induced release of PGE2 (human platelets [5]): substantially prevented
aggregation slope (rate) (platelets [6]; 10 μM, ADP as platelet agonist): decrease the aggregation slope
initial slope of platelet aggregation, % of the normal (untreated) (platelets [6]; 20 μM, ADP-stimulated PRP, first 16 seconds, mean±SEM, n=7): 83±5%
amplitude of aggregation, % of normal platelets (platelets [6]; 20 μM, ADP-stimulated PRP, mean±SEM, n=7): 64±11%
platelet aggregation, concentration dependence (platelets [6]; varying concentrations, 15 min before ADP): concentration dependent inhibition
PFA-100 closure time, ADP activated (Human blood): takes longer to form a closure
ATP release amplitude, % of normal platelets (platelets [7]; ADP-stimulated, n=7): 22±10%
ATP release slope, % of normal (platelets [7]; ADP-stimulated, n=7): 15±5%
rate of ATP release with thrombin (platelets [7]; thrombin 1 U/ml): significant (P=0.002) reduction
